50 molecules from patent US7250521B2, “Method for production of Δ1-pyrrolines” (Bayer CropScience Aktiengesellschaft, priority 2001, dated 2007) can be followed below.

A short description of one data set: logP determination by HPLC on reverse-phase column (C 18), EEC directive 79/831 Annex V.A8. The data set is classed as physicochemical. To be noted: acidic range, pH 2.3; 0.1% aqueous phosphoric acid/acetonitrile gradient; 43° C.; values marked a). As to the method:
In the acidic range, the determination is carried out at pH 2.3 using the mobile phases 0.1% aqueous phosphoric acid and acetonitrile; linear gradient from 10% acetonitrile to 90% acetonitrile.
In the neutral range, the determination is carried out at pH 7.5 using the mobile phases 0.01 molar aqueous phosphate buffer solution and acetonitrile; linear gradient from 10% acetonitrile to 90% acetonitrile.
As to `O=C1CCC(c2ccc(Cl)cc2)N1` (stereo not shown) [Example V-11], the chromatographic logP is 1.61.

Still in this data set, the particulars now being: reverse-phase HPLC column (C 18), pH 2.3, acidic range, pH 2.3; 0.1% aqueous phosphoric acid/acetonitrile gradient; 43° C.; values marked a).
In the case of `COc1ccc(C2CCC(=O)N2)cc1F` (stereo not shown) [Example V-9], the chromatographic logP turned out to be 1.29.

Turning to `O=C1CCC(c2ccc(Cl)c(Cl)c2)N1` (stereo not shown) [Example V-10], the chromatographic logP stood at 1.92. Same read-out and setting: under `Cc1ccc(C2CCC(=O)N2)cc1Cl` (stereo not shown) [Example V-12] stands 1.92. `O=C1CCC(c2ccc(F)c(F)c2)N1` (stereo not shown) [Example V-13] yielded a chromatographic logP of 1.43. On the same count and under the same terms, under `Cc1ccc(C2CCC(=O)N2)cc1` (stereo not shown) [Example V-14] stands 1.52.

In the case of `O=C1CCC(c2ccccc2)N1` (stereo not shown) [Example V-15], the chromatographic logP was 1.21. Same read-out and setting: in the case of `O=C1CCC(c2ccc(Br)cc2)N1` (stereo not shown) [Example V-16] it was 1.72; in that of `O=C1CCC(c2ccc(F)cc2)N1` (stereo not shown) [Example V-17], 1.32.

Molecule `O=C1CCC(c2ccc(-c3ccc(O)cc3)cc2)N1` (stereo not shown) [Example V-18] registered a chromatographic logP of 1.47. Take `O=C1CCC(c2ccc(O)cc2)N1` (stereo not shown) [Example V-19]: the chromatographic logP is 0.55.

In turn, `CCOC(=O)Oc1ccc(-c2ccc(C3CCC(=O)N3)cc2)cc1` (stereo not shown) [Example V-20] registered a chromatographic logP of 2.39. Still for that read-out and setting: under `CC(C)Oc1ccc(-c2ccc(C3CCC(=O)N3)cc2)cc1` (stereo not shown) [Example V-21] stands 2.77. In the case of `O=C1CCC(c2ccc(-c3ccc(OCc4ccc(Cl)cc4)cc3)cc2)N1` (stereo not shown) [Example V-22], the chromatographic logP was 3.62. `O=C1CCC(c2ccc(-c3ccc(OCc4ccc(OC(F)(F)F)cc4)cc3)cc2)N1` (stereo not shown) [Example V-23]: the chromatographic logP stood at 3.83. On the same count and under the same terms, under `O=C1CCC(c2ccc(SC(F)(F)F)cc2)N1` (stereo not shown) [Example V-25] stands 1.59.

For `CC(C)(C)Sc1ccc(C2CCC(=O)N2)cc1` (stereo not shown) [Example V-26], the chromatographic logP was determined as 2.69. Molecule `O=C1CCC(c2ccc(-c3ccc(OC(F)(F)F)cc3)cc2)N1` (stereo not shown) [Example V-27] displayed a chromatographic logP of 2.96.

The molecule `O=C1CCC(c2ccc(-c3ccc(Br)cc3)cc2)N1` (stereo not shown) [Example V-28] registered a chromatographic logP of 2.76. Same read-out and setting: in the case of `CC(C)(C)OC(=O)N1C(=O)C(C(=O)c2ccc(Cl)cc2)CC1c1ccc(F)cc1` (stereo not shown) [II-2] it was 4.13; in that of `CC(C)(C)OC(=O)N1C(=O)CCC1c1ccc(OC(F)(F)F)cc1` (stereo not shown) [III-1, tert-butyl 2-oxo-5-[4-(trifluoromethoxy)phenyl]-1-pyrrolidinecarboxylate], 3.28; in that of `CC(C)(C)OC(=O)N1C(=O)CCC1c1ccccc1` (stereo not shown) [III-2], 2.52.

`CC(C)(C)OC(=O)N1C(=O)CCC1c1ccc(-c2ccc(SC(F)(F)F)cc2)cc1` (stereo not shown) [III-3] had a chromatographic logP of 4.67. On the same count and under the same terms, under `CC(C)(C)OC(=O)N1C(=O)CCC1c1ccc(C(C)(C)C)cc1` (stereo not shown) [III-4] stands 3.92; under `CC(C)c1ccc(C2CCC(=O)N2C(=O)OC(C)(C)C)cc1` (stereo not shown) [III-5], 3.65; under `Cc1cc(Cl)ccc1C1CCC(=O)N1C(=O)OC(C)(C)C` (stereo not shown) [III-6], 3.24. Still for that read-out and setting: in the case of `COc1ccc(C2CCC(=O)N2C(=O)OC(C)(C)C)cc1F` (stereo not shown) [III-7] it was 2.43. On the same count and under the same terms, in the case of `COc1ccc(C2CCC(=O)N2C(=O)OC(C)(C)C)cc1` (stereo not shown) [III-8] it was 2.43; in that of `Cc1ccc(C2CCC(=O)N2C(=O)OC(C)(C)C)c(Cl)c1` (stereo not shown) [III-9], 3.83; in that of `CC(C)(C)OC(=O)N1C(=O)CCC1c1ccc(Cl)cc1Cl` (stereo not shown) [III-10], 3.54. For the molecule `CC(C)(C)OC(=O)N1C(=O)CCC1c1ccc(Cl)c(Cl)c1` (stereo not shown) [III-11], the chromatographic logP was determined as 3.29. The same measure, in the same setting: in the case of `CC(C)(C)OC(=O)N1C(=O)CCC1c1ccc(F)c(F)c1` (stereo not shown) [III-12] it was 2.67.

The molecule `CC(C)(C)OC(=O)N1C(=O)CCC1c1ccc(Cl)cc1` (stereo not shown) [III-13] returned a chromatographic logP of 2.93. On the same count and under the same terms, in the case of `Cc1ccc(C2CCC(=O)N2C(=O)OC(C)(C)C)cc1Cl` (stereo not shown) [III-14] it was 3.3; in that of `CSc1ccc(C2CCC(=O)N2C(=O)OC(C)(C)C)cc1` (stereo not shown) [III-15], 2.84; in that of `CC(C)(C)OC(=O)N1C(=O)CCC1c1ccc(F)cc1F` (stereo not shown) [III-16], 2.69.

In the case of `Cc1ccc(C2CCC(=O)N2C(=O)OC(C)(C)C)c(C)c1` (stereo not shown) [III-17], the chromatographic logP was determined as 3.2. On the same count and under the same terms, under `CC(C)(C)OC(=O)N1C(=O)CCC1c1ccc(C2CCCCC2)cc1` (stereo not shown) [III-18] stands 4.71; under `CC(C)(C)OC(=O)N1C(=O)CCC1c1ccc(CCc2ccccc2)cc1` (stereo not shown) [III-19], 4.11; under `Cc1ccc(C2CCC(=O)N2C(=O)OC(C)(C)C)cc1` (stereo not shown) [III-20], 2.9. Still for that read-out and setting: under `CC(C)(C)OC(=O)N1C(=O)CCC1c1ccc(F)cc1` (stereo not shown) [III-21] stands 2.57; under `CC(C)Oc1ccc(-c2ccc(C3CCC(=O)N3C(=O)OC(C)(C)C)cc2)cc1` (stereo not shown) [III-23], 4.17. Regarding `CC(C)(C)OC(=O)N1C(=O)CCC1c1ccc(-c2ccc(OCc3ccc(Cl)cc3)cc2)cc1` (stereo not shown) [III-24], the chromatographic logP is 4.93. On the same count and under the same terms, under `CC(C)(C)OC(=O)N1C(=O)CCC1c1ccc(-c2ccc(OCc3ccc(OC(F)(F)F)cc3)cc2)cc1` (stereo not shown) [III-25] stands 5.03. Still for that read-out and setting: under `CC(C)(C)OC(=O)N1C(=O)CCC1c1ccc(-c2ccc(Br)cc2)cc1` (stereo not shown) [III-27] stands 4.26; under `CCOc1cc(C(C)(C)C)ccc1C1CCC(=O)N1C(=O)OC(C)(C)C` (stereo not shown) [III-28], 4.4.

The same data set, now with this note: reverse-phase HPLC column (C 18), pH 7.5, neutral range, pH 7.5; 0.01 molar aqueous phosphate buffer/acetonitrile gradient; 43° C.; values marked b).
As to `CC(C)(C)OC(=O)N1C(=O)C(C(=O)c2ccccc2Br)CC1c1ccc(OC(F)(F)F)cc1` (stereo not shown) [II-1, tert-butyl 3-(2-bromobenzoyl)-2-oxo-5-[4-(trifluoromethoxy)phenyl]-1-pyrrolidinecarboxylate], the chromatographic logP turned out to be 3.35. Molecule `CC(C)(C)OC(=O)N1C(=O)C(C(=O)c2ccccc2C(F)(F)F)CC1c1ccc(Br)cc1` (stereo not shown) [II-3] had a chromatographic logP of 3.03. Still for that read-out and setting: in the case of `Cc1ccccc1C(=O)C1CC(c2ccc(C(C)C)cc2)N(C(=O)OC(C)(C)C)C1=O` (stereo not shown) [II-5] it was 5.05; in that of `CC(C)(C)OC(=O)N1C(=O)C(C(=O)c2ccc(Cl)c(Cl)c2)CC1c1ccccc1` (stereo not shown) [II-6], 4.6; in that of `Cc1cc(Cl)ccc1C1CCC(=O)N1C(=O)OC(C)(C)C` (stereo not shown) [III-6], 3.25. Still for that read-out and setting: in the case of `CSc1ccc(C2CCC(=O)N2C(=O)OC(C)(C)C)cc1` (stereo not shown) [III-15] it was 2.83.
